Measurements as given in publication PMC7158045 (BMC Plant Biology, 2020).
Counter-ions that a name gives are not always drawn.

Assays:
Assay in all cases: biochemical
ZmDRIK1-K217-S514 = target: T1, ZmDRIK1-K217-S514 (Zea mays, UniProt C0P4K9); settings: read-out: dTm B, sheet ZmDRIK1-K217-S514;; DSF, Boltzmann fit, 0.1% DMSO
T1 construct: kinase domain, K217-S514
T1 sequence (C0P4K9 1-514): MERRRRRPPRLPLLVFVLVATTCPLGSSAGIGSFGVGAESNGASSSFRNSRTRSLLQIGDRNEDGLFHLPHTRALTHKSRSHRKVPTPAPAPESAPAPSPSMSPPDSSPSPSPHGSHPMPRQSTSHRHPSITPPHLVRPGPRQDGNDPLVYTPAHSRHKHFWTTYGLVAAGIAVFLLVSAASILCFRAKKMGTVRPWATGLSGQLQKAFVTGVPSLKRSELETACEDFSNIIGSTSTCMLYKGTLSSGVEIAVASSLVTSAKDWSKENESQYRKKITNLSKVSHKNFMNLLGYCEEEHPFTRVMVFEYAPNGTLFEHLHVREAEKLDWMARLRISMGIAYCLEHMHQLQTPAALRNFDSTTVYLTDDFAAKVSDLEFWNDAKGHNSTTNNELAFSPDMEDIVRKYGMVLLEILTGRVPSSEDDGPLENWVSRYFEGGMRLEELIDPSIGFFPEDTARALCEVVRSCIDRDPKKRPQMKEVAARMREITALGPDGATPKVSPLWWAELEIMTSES

ZmDRIK1-R187-P492 = target: T2, ZmDRIK1-R187-P492 (Zea mays, UniProt C0P4K9); settings: read-out: dTm B, DSF, Boltzmann fit, 0.1% DMSO
T2 construct: kinase domain, R187-P492
T2 sequence (C0P4K9 1-514): T1 sequence (C0P4K9 1-514)

[1] = target: T3, ZmDRIK1 (DROUGHT RESPONSIVE INACTIVE KINASE 1), kinase domain (Zea mays, UniProt C0P4K9); settings: read-out: dTm B, sheet ZmDRIK1-R187-S514;; DSF, Boltzmann fit, 0.1% DMSO
T3 construct: gene ZEAMMB73_Zm00001d028770; ZmDRIK1-KD R187-S514 (kinase domain)
T3 sequence (C0P4K9 187-514): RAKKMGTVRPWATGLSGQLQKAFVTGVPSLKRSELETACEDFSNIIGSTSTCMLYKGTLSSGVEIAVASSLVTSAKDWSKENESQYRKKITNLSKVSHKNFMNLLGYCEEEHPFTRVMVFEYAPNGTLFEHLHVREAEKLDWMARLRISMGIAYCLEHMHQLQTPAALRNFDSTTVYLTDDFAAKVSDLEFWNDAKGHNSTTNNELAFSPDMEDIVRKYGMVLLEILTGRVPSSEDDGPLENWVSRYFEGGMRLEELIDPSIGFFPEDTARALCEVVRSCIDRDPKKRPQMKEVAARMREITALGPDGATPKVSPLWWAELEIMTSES

ZmDRIK1-K217-P492 = target: T4, ZmDRIK1-K217-P492 (Zea mays, UniProt C0P4K9); settings: read-out: dTm B, sheet ZmDRIK1-K217-P492;; DSF, Boltzmann fit, 0.1% DMSO
T4 construct: kinase domain, K217-P492
T4 sequence (C0P4K9 1-514): T1 sequence (C0P4K9 1-514)

Structure (SMILES)	ΔTm at 10 µM (ZmDRIK1-K217-S514) [°C]	ΔTm at 10 µM (ZmDRIK1-R187-P492) [°C]	ΔTm at 10 µM [1] [°C]	ΔTm at 10 µM (ZmDRIK1-K217-P492) [°C]
COc1cccc2cc(-c3nc([C@H]4CC[C@H](C(=O)O)CC4)n4ncnc(N)c34)[nH]c12 [OSI-027]	-0.417	-0.418	-0.416	-1.03
C#Cc1cccc(Nc2ncnc3cc(OCCOC)c(OCCO)cc23)c1 [OSI-420]	-0.412	-0.201	-1.2	-0.652
C[C@]1(O)C[C@@H](c2nc(-c3ccc4ccc(-c5ccccc5)nc4c3)c3c(N)nccn32)C1 [OSI-906 (Linsitinib)]	-0.681	-0.547	-0.97	-0.53
O=C(Nc1ccc(OC(F)(F)F)cc1)c1sccc1NCc1ccnc2ccccc12 [OSI-930]	-5.53	-3.67	-0.0551	-0.971
NCC(=O)Nc1ccc(-n2nc(C(F)(F)F)cc2-c2ccc3c(ccc4ccccc43)c2)cc1 [OSU-03012 (AR-12)]	0.388	-1.36	-0.382	-8.69
CN1CCC(c2c(O)cc(O)c3c(=O)cc(-c4ccccc4Cl)oc23)C1CO (stereo not drawn) [P276-00]	-0.359	-0.274	-0.748	-0.275
COc1cccc(-c2cc(=O)c3ccccc3o2)c1N [PD98059]	-0.33	-0.0775	-1.1	-1.13
C=CC(=O)Nc1ccc2ncnc(Nc3cccc(Br)c3)c2c1 [PD168393]	0.721	0.724	-0.108	-0.0923
CCN(CC)CCCCNc1ncc2cc(-c3cc(OC)cc(OC)c3)c(NC(=O)NC(C)(C)C)nc2n1 [PD173074]	-0.228	-0.212	-0.711	-0.962
CSc1cccc(Nc2ncc3cc(-c4c(Cl)cccc4Cl)c(=O)n(C)c3n2)c1 [PD173955]	-0.595	-0.72	-1.36	-2.14
O=C(NOCC(O)CO)c1cc(Br)c(F)c(F)c1Nc1ccc(I)cc1F (stereo not drawn) [PD318088]	-0.114	0.042	-0.924	-1.33
Cn1cc(-c2[nH]c3cc(NC(=O)[C@H](N)C4CCCCC4)cc4c3c2C=NNC4=O)cn1 [PF-477736]	-0.328	-0.228	-0.63	-1.09
CS(=O)(=O)c1cccc(CNc2nc(Nc3ccc4c(c3)CCC(=O)N4)ncc2C(F)(F)F)c1 [PF-573228]	0.0316	0.148	-0.638	-1.45
Cc1nc(Nc2n[nH]c3c2CN(C(=O)N[C@H](CN(C)C)c2ccccc2)C3(C)C)c2sccc2n1 [PF-3758309]	-0.258	-0.393	-0.774	-0.748
OCCn1cc(-c2cnc3nnn(Cc4ccc5ncccc5c4)c3n2)cn1 [PF-04217903]	-0.0615	-0.0503	-0.576	-0.909
COc1ccc(-c2cc3c(C)nc(N)nc3n([C@H]3CC[C@H](OCCO)CC3)c2=O)cn1 [PF-04691502]	-0.31	-0.18	-0.814	-0.953
CNC(=O)c1ccc(C)c(-n2c(C)cc(OCc3ccc(F)cc3F)c(Br)c2=O)c1 [PH-797804]	-0.43	-0.28	-0.839	-0.248

Now from value to compound:

ΔTm at 10 µM (ZmDRIK1-K217-S514) [°C]	ΔTm at 10 µM (ZmDRIK1-R187-P492) [°C]	ΔTm at 10 µM [1] [°C]	ΔTm at 10 µM (ZmDRIK1-K217-P492) [°C]	Structure (SMILES)
-0.843	-0.648	-0.988	-1.25	Cc1[nH]c(/C=C2\C(=O)Nc3ccc(S(=O)(=O)Cc4c(Cl)cccc4Cl)cc32)c(C)c1C(=O)N1CCC[C@@H]1CN1CCCC1 [PHA-665752]
-0.247	-0.18	-0.776	-0.924	CCc1cccc(CC)c1NC(=O)N1Cc2[nH]nc(NC(=O)c3ccc(N4CCN(C)CC4)cc3)c2C1 [PHA-680632]
-0.125	-0.213	-0.701	-0.984	O=C1NCCc2[nH]c(-c3ccncc3)cc21 [PHA-767491]
-0.312	-0.158	-0.826	-0.634	CC(C)CC(=O)Nc1n[nH]c2c1CN(C(=O)C1CCN(C)CC1)C2(C)C [PHA-793887]
-0.296	-0.255	-1.24	-1.79	CCCCCCCCCCCCc1ccc(S(=O)(=O)Nc2nncs2)cc1 [PHT-427]
-0.559	-0.366	-0.608	-1.14	Oc1cccc(-c2nc(N3CCOCC3)c3oc4ncccc4c3n2)c1 [PI-103]
-0.221	-0.296	-0.734	-1.46	Cc1ccc([N+](=O)[O-])cc1S(=O)(=O)N(C)/N=C/c1cnc2ccc(Br)cn12 [PIK-75]
-0.175	-0.0815	-1.08	-0.556	CC(=O)Nc1nc(C)c(-c2ccc(Cl)c(S(=O)(=O)NCCO)c2)s1 [PIK-93]
-0.478	-0.12	-1.27	-0.653	CCCS(=O)(=O)Nc1ccc(F)c(C(=O)c2c[nH]c3ncc(Cl)cc23)c1F [PLX-4720]
-0.253	-0.136	-0.972	-1.01	Cc1ccc(-c2nn(C(C)(C)C)c3ncnc(N)c23)cc1 [PP1]
-0.458	-0.394	-0.713	-1.25	CC(C)(C)n1nc(-c2ccc(Cl)cc2)c2c(N)ncnc21 [PP2]
-0.432	-0.369	-0.595	-1.06	Nc1ncnc2c1c(-c1cnc3[nH]ccc3c1)nn2C1CCCC1 [PP121]
-0.394	-0.365	-1.59	-0.962	COc1ccc(Cl)cc1NC(=O)Nc1cc(C)nc2ccccc12 [PQ 401]
-0.551	-0.212	-0.709	-0.348	NC(=O)c1cnc(N[C@@H]2CCCC[C@@H]2N)nc1Nc1cccc(-n2nccn2)c1 [PRT062607 (P505-15)]
0.03	-0.0853	0.0273	1.04	C1=N/C2=N/c3ccc(OCCN4CCCC4)c(c3)COC/C=C/COCc3cccc(c3)C(=C1)N2 [Pacritinib (SB1518)]
-0.31	-0.154	-0.906	-0.775	CC(=O)c1c(C)c2cnc(Nc3ccc(N4CCNCC4)cn3)nc2n(C2CCCC2)c1=O [Palbociclib (PD-0332991) HCl]
-0.134	-0.229	-0.623	-0.76	COc1ccc(COc2cc3oc(=O)c4cc(C(C)O)ccc4c3cc2OC)cc1 (stereo not drawn) [Palomid 529 (P529)]
-0.496	-0.494	-0.77	-0.854	CCOc1cc2ncc(C#N)c(Nc3ccc(F)c(Cl)c3)c2cc1NC(=O)/C=C/CN(C)C [Pelitinib (EKB-569)]
-0.473	-0.125	-0.596	-1.3	N=C(N)NC(=N)NCCc1ccccc1 [Phenformin HCl]
1.1	0.733	-0.69	-0.567	Oc1cc(O)cc(/C=C/c2ccc(O)c(O)c2)c1 [Piceatannol]
-0.594	-0.33	-0.651	-0.841	O=C(NC[C@H](O)CO)c1ccncc1Nc1ccc(I)cc1F [Pimasertib (AS-703026)]
-0.482	-0.39	-0.951	-0.505	Cc1ccc(C(=O)Nc2ccc(CN3CCN(C)CC3)c(C(F)(F)F)c2)cc1C#Cc1cnc2cccnn12 [Ponatinib (AP24534)]
